Literature values, collected in US8313936B2, “Nucleic acids and polypeptides involved in the production of cryptophycin” (priority 2006, dated 2012).

Conditions: assay not specified; U.S. Publication No. 20020065261

COc1ccc(C[C@H]2NC(=O)/C=C/C[C@@H]([C@H](C)[C@H]3O[C@@H]3c3ccccc3)OC(=O)[C@H](CC(C)C)OC(=O)[C@H](C)CNC2=O)cc1Cl [Cryptophycin 1]
activity relative to other cryptophycins: the most active natural compound
